Laboratory results from patent publication US11413321B2, “Pharmaceutical composition for use in increasing hair, modifying scalp or skin, healing a wound, promoting osteogenesis, or modifying hair” (priority 2017, dated 2022).

Legend:
Assay type in all cases: in vivo, Wistar rat
[1] = test system: full-thickness skin defect; test: Wound healing score, circular full-thickness skin defect on the dorsal part
Experimental: Formation of wounds: hair on the dorsal part of a 12-week-old Wistar rat was shaven with hair clippers, and a circular full-thickness skin defect with a diameter of 8 mm was produced on each of the left and right sides of the head and the left and right sides of the tail. The full-thickness skin defect was formed at four locations per body.
Administration of milk: 20 μL of milk was subcutaneously injected at each of four locations, namely upper, lower, left and right, in a place 4 mm away from the peripheral edge of the wound. As the milk, the commercially available bovine milk sterilized by heating (at 130 degrees for 2 seconds and 65 degrees for 30 minutes) as described in Example 1 was used.
Administration of fatty acid: As a fatty acid contained in the milk, sterile purified water (administration liquid) containing palmitic acid, stearic acid, myristic acid, linolenic acid, α-linoleic acid and oleic acid, respectively was administered. Here, the water was heated and administered for the saturated fatty acids, and the water was administered at room temperature for the unsaturated fatty acids. 20 μL of the administration liquid (containing 1 mg of the fatty acid) was subcutaneously administered at each of four locations, namely upper, lower, left and right, in a place 4 mm away from the peripheral edge of the wound.
Score 4: The reduction ratio of the area of the wound site is 70% or more.
Score 3: The reduction ratio of the area of the wound site is 50% or more and less than 70%.
Score 2: The reduction ratio of the area of the wound site is 20% or more and less than 50%.
Score 1: The reduction ratio of the area of the wound site is less than 20%.
The result was given as a ratio obtained by dividing the above score by the score for physiological saline.
Two tubes of 8 mL of commercially available milk sterilized at a low temperature (65 degrees for 30 minutes) were centrifuged by a centrifugal separator (2600 g×6 minutes), 2 mL of one fourth of the supernatant exclusive of a whip portion was collected from each tube, the two collected liquids were combined to obtain 4 mL of a liquid, and 4 mL of the resulting liquid was stirred, and used for experiments (hereinafter, the obtained sample is referred to as a “centrifuged sample”). The obtained centrifuged sample was administered to the wound site at a dosage of 20 μL per location in the same manner as described above. The results are shown in “Centrifuged Sample” in FIG. 6A.
Next, a wound healing-promoting effect of lactoferrin was examined. As lactoferrin, Nice rim essence 62971 (trade name) purchased from Lion Corporation was used and administered at one location in an amount of 20 μg or 60 μg in the same manner as described above. Specifically, the lactoferrin was ground, and then thoroughly dissolved in purified water. The lactoferrin concentration was adjusted so that an injection amount of 20 μL included the above administration amount. The result was given as a value obtained by dividing each of scores after seven days and after ten days by the score for the physiological saline administration group.

PPAR-γ-positive cells [2] = test: Immunohistological staining of rat dorsal skin after injection of fatty acids (PPAR-γ); conditions: 1 mg fatty acid in 20 μL per location; for number of PPAR-γ-positive cells at the administration site: four weeks after administration, vs physiological saline, FIGS. 10B-10G; for increase in the number of PPAR-γ-positive cells at the administration site: eight weeks after administration
Experimental: (§1) Next, representative fatty acids contained in milk were administered to a 12-week-old Wistar rat at a plurality of locations on the dorsal skin as in Example 1(2) above, and a change in tissues by the administration was observed after the tissues were subjected to immunohistological staining. More specifically, physiological saline was administered in an amount of 20 μL per location, an administration liquid containing 1 mg of a fatty acid was administered in an amount of 20 μL per location, and a change in CD68-positive macrophage stained images and PPAR-γ-positive cell images by the administration was observed. Samples of the Wistar rat were obtained by sampling administration sites (four weeks after administration and eight weeks after administration). FIGS. 10A to 10G show the results. […] At saturated fatty acid injection sites, infiltration of a large number of CD68-positive cells was observed, and fibrillization of normal tissues was observed. Therefore, in FIGS. 10B to 10D, a change in fat tissues was examined at a location which was closest to the administration site and where normal tissues were maintained (non-fibrillization location).

CD68-positive cells [3] = test: Immunohistological staining of rat dorsal skin after injection of fatty acids (CD68); conditions: 1 mg fatty acid in 20 μL per location; for number of CD68-positive cells (overall statement): a weak effect was observed overall
Experimental: as §1

PPAR-γ-positive cells [4] = test: Immunohistological staining of rat dorsal skin after forced oral lactoferrin (PPAR-γ); conditions: 300 mg oral once a day, eight weeks after administration, n=3; FIG. 9
Experimental: (§2) As a comparative test, lactoferrin was administered instead of milk, and whether the number of CD68-positive cells and the number of PPAR-γ-positive cells increased or not was examined. As lactoferrin, three tablets of Nice rim essence 62971 (manufactured by Lion Corporation) corresponding to 300 mg of active lactoferrin (amount ingested per day by a human) were orally administered to a 12-week-old Wistar rat (n=3). Administration was performed once a day with the tablets injected (forcedly ingested) into the stomach using a feeding needle. Eight weeks after administration, a paraffin-embedded section of the dorsal skin was prepared by a conventional method, and subjected to immunohistological staining.

CD68-positive cells [5] = test: Immunohistological staining of rat dorsal skin after forced oral lactoferrin (CD68); conditions: 300 mg oral once a day, eight weeks after administration, n=3; FIG. 9
Experimental: as §2

[6] = 20 μL administration liquid containing 1 mg of the fatty acid at each of four locations, FIG. 6C
[7] = eight weeks after administration
[8] = four weeks after administration, vs physiological saline

Compound | wound healing-promoting effect (score divided by the score for physiological saline) [1, 6] | number of PPAR-γ-positive cells at the administration site (PPAR-γ-positive cells [2]) | number of CD68-positive cells (overall statement) (CD68-positive cells [3]) | number of CD68-positive cells at the administration site (CD68-positive cells [3]; [7]) | number of CD68-positive cells at the administration site (CD68-positive cells [3]; [8]) | wound healing-promoting effect (score divided by the score for physiological saline) ([1]; 20 μg or 60 μg per location in 20 μL, after seven days and after ten days, FIG. 6B) | number of PPAR-γ-positive cells in dorsal skin (PPAR-γ-positive cells [4]) | number of CD68-positive cells in dorsal skin (CD68-positive cells [5]) | increase in the number of PPAR-γ-positive cells at the administration site (PPAR-γ-positive cells [2])
CCCCCCCC/C=C\CCCCCCCC(=O)O [oleic acid] | weak wound healing-promoting effect | did not remarkably increase | did not greatly increase | increased | did not remarkably increase | – | – | – | –
CCCCC/C=C\C/C=C\CCCCCCCC(=O)O [linoleic acid] | weak wound healing-promoting effect | did not remarkably increase | did not greatly increase | increased | did not remarkably increase | – | – | – | –
lactoferrin | – | – | – | – | – | did not exhibit a significant promoting effect | did not increase | did not increase | –
CCCCCCCCCCCCCCCCCC(=O)O [stearic acid] | high promoting effect | increased | – | maintained | increased | – | – | – | maintained
CC/C=C\C/C=C\C/C=C\CCCCCCCC(=O)O [α-linolenic acid] | weak wound healing-promoting effect | did not remarkably increase | did not greatly increase | increased | did not remarkably increase | – | – | – | –
CCCCCCCCCCCCCC(=O)O [myristic acid] | high promoting effect | increased | – | maintained | increased | – | – | – | maintained
